Measured values published in ChEMBL document CHEMBL1143311, “Structure-activity relationship and studies on the molecular mechanism of leishmanicidal N,C-coupled arylisoquinolinium salts” (J Med Chem, 2009).
Each block holds one compound with its values, some of them ahead of it. Activity calls are given as the source filed them. The rule behind the calls is not given here.

What was measured:
[1] = Antiproliferative activity against mouse J774.1 cells after 48 hrs by alamar blue assay; format: cell-based; settings: Mus musculus, J774.1, 48 h
[2] = test system: Leishmania major; assay: Antileishmanial activity against Leishmania major MHOM/IL/81/FE/BNI promastigotes by alamar blue assay; format: functional, organism-based
[3] = Selectivity index, ratio of IC50 for mouse J774.1 cells to IC50 for Leishmania major MHOM/IL/81/FE/BNI promastigotes; format: toxicity; settings: J774.1 cells, read-out: Ratio IC50
[4] = test system: Macrophage; assay: Increase in nitric oxide production in LPS-stimulated BALB/c mouse peritoneal macrophages infected with Leishmania major MHOM/IL/81/FE/BNI promastigotes at 3 uM after 48 hrs by […]; format: functional, cell-based
[5] = test system: Macrophage; assay: Reduction of TNFalpha production in IFN-gamma-stimulated BALB/c mouse peritoneal macrophages infected with Leishmania major MHOM/IL/81/FE/BNI promastigotes at 3 uM after 24 hrs by sandwich ELISA; format: functional, cell-based
[6] = test system: Macrophage; assay: Increase in nitric oxide production in BALB/c mouse peritoneal macrophages infected with Leishmania major MHOM/IL/81/FE/BNI promastigotes at 3 uM after 48 hrs by […] relative to noninfected cells; format: functional
[7] = test system: Macrophage; assay: Increase in TGFbeta secretion in IFN-gamma-stimulated BALB/c mouse peritoneal macrophages infected with Leishmania major MHOM/IL/81/FE/BNI promastigotes at 3 uM after 24 hrs by sandwich ELISA; format: functional, cell-based
[8] = biological target: Albumin (Bos taurus, UniProt P02769); assay: Binding affinity to bovine serum albumin by ultrafiltration method; format: ADME; settings: cattle; for fraction unbound: bovine serum albumin, read-out: PPB (converted)
Sequence of Albumin (P02769 whole entry): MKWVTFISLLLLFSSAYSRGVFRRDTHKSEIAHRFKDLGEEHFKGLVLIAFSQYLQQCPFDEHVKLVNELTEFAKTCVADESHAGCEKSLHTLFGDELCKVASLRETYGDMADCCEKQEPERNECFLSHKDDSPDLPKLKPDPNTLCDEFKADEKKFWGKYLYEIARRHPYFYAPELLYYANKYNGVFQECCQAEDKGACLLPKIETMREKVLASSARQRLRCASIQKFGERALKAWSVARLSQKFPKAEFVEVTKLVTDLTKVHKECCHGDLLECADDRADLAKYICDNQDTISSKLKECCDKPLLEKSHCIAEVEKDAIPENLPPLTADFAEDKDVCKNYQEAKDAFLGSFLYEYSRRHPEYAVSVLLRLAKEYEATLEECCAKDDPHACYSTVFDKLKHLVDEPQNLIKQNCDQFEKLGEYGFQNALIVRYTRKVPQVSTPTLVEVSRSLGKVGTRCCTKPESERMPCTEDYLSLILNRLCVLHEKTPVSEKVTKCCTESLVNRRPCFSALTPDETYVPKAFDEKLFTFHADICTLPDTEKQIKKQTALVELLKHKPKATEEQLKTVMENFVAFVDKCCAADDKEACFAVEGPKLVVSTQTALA

[9] = biological target: T1, Cytochrome P450 2D6 (Homo sapiens, UniProt P10635); assay: Inhibition of human CYP2D6 expressed in baculovirus-infected insect cell system; format: ADME
T1 sequence (P10635 whole entry): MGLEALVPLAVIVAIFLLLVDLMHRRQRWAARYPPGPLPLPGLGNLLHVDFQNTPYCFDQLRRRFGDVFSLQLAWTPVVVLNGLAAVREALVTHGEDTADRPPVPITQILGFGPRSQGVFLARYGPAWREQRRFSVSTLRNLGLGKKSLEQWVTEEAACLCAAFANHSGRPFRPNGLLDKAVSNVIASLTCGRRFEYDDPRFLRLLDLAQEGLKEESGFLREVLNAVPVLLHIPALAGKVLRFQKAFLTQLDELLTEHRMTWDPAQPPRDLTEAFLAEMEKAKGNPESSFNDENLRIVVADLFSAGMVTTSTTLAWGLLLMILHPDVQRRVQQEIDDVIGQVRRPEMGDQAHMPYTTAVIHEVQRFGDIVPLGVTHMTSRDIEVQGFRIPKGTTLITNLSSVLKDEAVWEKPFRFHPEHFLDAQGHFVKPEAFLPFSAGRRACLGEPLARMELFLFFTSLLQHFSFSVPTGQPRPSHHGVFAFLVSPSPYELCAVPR

[10] = test system: Macrophage; assay: Decrease in IL10 secretion in IFN-gamma-stimulated BALB/c mouse peritoneal macrophages infected with Leishmania major MHOM/IL/81/FE/BNI promastigotes at 3 uM after 24 hrs by sandwich ELISA; format: functional, cell-based
[11] = test system: Macrophage; assay: Reduction of IL6 production in IFN-gamma-stimulated BALB/c mouse peritoneal macrophages infected with Leishmania major MHOM/IL/81/FE/BNI promastigotes at 3 uM after 24 hrs by sandwich ELISA; format: functional, cell-based
[12] = biological target: Cytochrome P450 2C19 (Homo sapiens, UniProt P33261); assay: Inhibition of human CYP2C19 at 100 uM by LC/ESI-MS analysis; format: ADME
Sequence of Cytochrome P450 2C19 (P33261 whole entry): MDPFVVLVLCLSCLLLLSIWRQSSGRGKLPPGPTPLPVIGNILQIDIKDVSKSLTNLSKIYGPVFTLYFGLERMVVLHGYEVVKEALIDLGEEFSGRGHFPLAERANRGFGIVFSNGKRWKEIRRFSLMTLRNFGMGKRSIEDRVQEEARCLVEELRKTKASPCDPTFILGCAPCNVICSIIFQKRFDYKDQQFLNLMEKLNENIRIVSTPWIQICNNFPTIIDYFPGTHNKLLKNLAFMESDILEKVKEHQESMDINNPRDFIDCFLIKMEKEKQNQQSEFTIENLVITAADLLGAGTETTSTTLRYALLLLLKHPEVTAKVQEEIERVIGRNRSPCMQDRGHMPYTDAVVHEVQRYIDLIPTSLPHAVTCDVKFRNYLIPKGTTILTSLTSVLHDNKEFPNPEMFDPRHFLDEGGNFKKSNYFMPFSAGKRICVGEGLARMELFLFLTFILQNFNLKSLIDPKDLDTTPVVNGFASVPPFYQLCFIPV

[13] = biological target: Cytochrome P450 2C9 (Homo sapiens, UniProt P11712); assay: Inhibition of human CYP2C9 at 100 uM by LC/ESI-MS analysis; format: ADME
Sequence of Cytochrome P450 2C9 (P11712 whole entry): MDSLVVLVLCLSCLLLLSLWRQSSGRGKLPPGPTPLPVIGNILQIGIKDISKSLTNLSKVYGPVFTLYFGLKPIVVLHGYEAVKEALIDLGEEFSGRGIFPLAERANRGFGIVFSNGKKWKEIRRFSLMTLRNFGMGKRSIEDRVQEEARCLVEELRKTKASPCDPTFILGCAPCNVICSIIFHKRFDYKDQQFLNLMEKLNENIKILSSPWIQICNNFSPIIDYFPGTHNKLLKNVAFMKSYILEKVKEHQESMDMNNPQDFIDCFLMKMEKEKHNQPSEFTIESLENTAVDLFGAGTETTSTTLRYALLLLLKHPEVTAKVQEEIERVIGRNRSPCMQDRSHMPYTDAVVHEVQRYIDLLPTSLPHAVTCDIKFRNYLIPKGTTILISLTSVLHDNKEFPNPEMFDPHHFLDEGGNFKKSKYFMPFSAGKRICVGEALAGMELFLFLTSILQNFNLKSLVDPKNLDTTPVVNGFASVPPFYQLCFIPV

[14] = test system: Macrophage; assay: Reduction of IL6 production in LPS-stimulated BALB/c mouse peritoneal macrophages infected with Leishmania major MHOM/IL/81/FE/BNI promastigotes at 3 uM after 24 hrs by sandwich ELISA; format: functional, cell-based
[15] = Cytotoxicity against BALB/c mouse peritoneal macrophages after 48 hrs by alamar blue assay; format: cell-based; settings: Macrophage
[16] = Cytotoxicity against BALB/c mouse DC after 48 hrs by alamar blue assay
[17] = test system: Macrophage; assay: Decrease in IL10 secretion in LPS-stimulated BALB/c mouse peritoneal macrophages infected with Leishmania major MHOM/IL/81/FE/BNI promastigotes at 3 uM after 24 hrs by sandwich ELISA; format: functional, cell-based
[18] = biological target: Cytochrome P450 3A4 (Homo sapiens, UniProt P08684); assay: Inhibition of human CYP3A4 at 100 uM by LC/ESI-MS analysis; format: ADME
Sequence of Cytochrome P450 3A4 (P08684 whole entry): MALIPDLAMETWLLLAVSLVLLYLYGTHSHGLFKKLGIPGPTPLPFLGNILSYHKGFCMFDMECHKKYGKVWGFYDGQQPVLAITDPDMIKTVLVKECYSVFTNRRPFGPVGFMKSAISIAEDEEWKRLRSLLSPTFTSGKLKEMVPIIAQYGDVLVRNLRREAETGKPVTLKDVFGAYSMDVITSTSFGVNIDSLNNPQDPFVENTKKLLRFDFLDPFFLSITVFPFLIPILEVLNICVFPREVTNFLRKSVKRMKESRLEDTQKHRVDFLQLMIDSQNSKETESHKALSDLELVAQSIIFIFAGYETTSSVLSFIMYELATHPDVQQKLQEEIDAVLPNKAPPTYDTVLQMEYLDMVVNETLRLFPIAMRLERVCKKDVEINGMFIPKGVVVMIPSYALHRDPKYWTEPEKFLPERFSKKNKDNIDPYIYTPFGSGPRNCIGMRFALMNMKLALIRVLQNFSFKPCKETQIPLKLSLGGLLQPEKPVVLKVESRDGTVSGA

[19] = biological target: T1, Cytochrome P450 2D6; assay: Inhibition of human CYP2D6 at 1 to 100 uM by LC/ESI-MS analysis; format: ADME
[20] = Cytotoxicity against mouse NIH/3T3 after 48 hrs by alamar blue assay; format: cell-based; settings: NIH3T3, 48 h
[21] = test system: Macrophage; assay: Increase in nitric oxide production in IFN-gamma-stimulated BALB/c mouse peritoneal macrophages infected with Leishmania major MHOM/IL/81/FE/BNI promastigotes at 3 uM after 48 hrs by […] relative to noninfected cells; format: functional
[22] = test system: Macrophage; assay: Increase in TGFbeta secretion in BALB/c mouse peritoneal macrophages infected with Leishmania major MHOM/IL/81/FE/BNI promastigotes at 3 uM after 24 hrs by sandwich ELISA; format: functional, cell-based
[23] = test system: Leishmania major; assay: Antileishmanial activity against Leishmania major MHOM/IL/81/FE/BNI promastigotes infected in BALB/c mouse peritoneal macrophages assessed as decrease in infection rate after 48 hrs by fluorescence microscopy; format: functional, organism-based
[24] = biological target: T1, Cytochrome P450 2D6; assay: Inhibition of human CYP2D6 by Lineweaver-Burke plot; format: ADME
[25] = Ratio of IC50 for BALB/c mouse peritoneal macrophages to EC50 for Leishmania major MHOM/IL/81/FE/BNI promastigotes
[26] = test system: Leishmania major; assay: Antileishmanial activity against Leishmania major MHOM/IL/81/FE/BNI promastigotes infected in BALB/c mouse peritoneal macrophages assessed as decrease in infection rate after 48 hrs by fluorescence microscopy in presence of interferon-gamma; format: functional, organism-based
[27] = test system: Macrophage; assay: Reduction of TNFalpha production in LPS-stimulated BALB/c mouse peritoneal macrophages infected with Leishmania major MHOM/IL/81/FE/BNI promastigotes at 3 uM after 24 hrs by sandwich ELISA; format: functional, cell-based

Structure (SMILES): COc1cc(OC)c2c(C)[n+](-c3ccc4ncccc4c3)c(C)cc2c1
IC50 [1]: > 100 µM | IC50 ([2]; Leishmania major): > 100 µM

Structure (SMILES): COc1cc(OC)c2c(C)[n+](-c3cccc4cc5ccccc5cc34)c(C)cc2c1
IC50 [1]: 1.69 µM | selectivity ratio [3]: < 1 | IC50 [2]: 1.85 µM

fraction unbound [8]: 0.297 | IC50 [9]: 0.109 µM | Activity [12]: Not Active | Activity [13]: Not Active | Activity [18]: Not Active | Activity [19]: Active | EC50 [23]: 0.158 µM | Ki [24]: 0.0547 µM
Structure (SMILES): COc1cc(OC)c2c(C)[n+](-c3ccc(C(C)C)cc3)c(C)cc2c1.O=C([O-])C(F)(F)F
Activity [4]: inactive | Activity [5]: Active | IC50 [1]: 13.1 µM | fold change (FC) [6]: 2.7 | Activity [7]: Active | Activity [10]: Active | Activity [11]: Active | selectivity ratio [3]: 6.55 | IC50 ([2]; Leishmania major): 2 µM | Activity [14]: Active | IC50 [15]: 8.81 µM | IC50 [16]: 7.6 µM | Activity [17]: Active | IC50 [20]: 11.1 µM | fold change (FC) [21]: 3 | Activity [22]: Active | Ratio IC50/EC50 [25]: 56 | Activity [26]: Active

Structure (SMILES): CCCc1ccc(-[n+]2c(C)cc3cc(OC)cc(OC)c3c2C)cc1
IC50 [1]: 5.36 µM | selectivity ratio [3]: 1.14 | IC50 ([2]; Leishmania major): 1.63 µM

Structure (SMILES): COc1cc(OC)c2c(C)[n+](-c3cccc4ccccc34)c(C)cc2c1
Activity [4]: inactive | Activity [5]: Active | Activity [7]: Active | Activity [10]: inactive | Activity [11]: Active | Activity [14]: Active | Activity [27]: Active | Activity [17]: inactive | Activity [22]: Active

Activity ([8]; isolated protein): Active | IC50 [9]: 0.9 µM | Activity [12]: Active | Activity [13]: Active | Activity [18]: Active | Activity [19]: Active | Ki [24]: 0.45 µM
Structure (SMILES): COc1cc(OC)c2c(C)[n+](-c3cccc4ccccc34)c(C)cc2c1.[O-][Cl+3]([O-])([O-])[O-]

Structure (SMILES): COc1cc(OC)c2c(C)[n+](-c3ccc(C#N)cc3)c(C)cc2c1
IC50 [1]: > 100 µM | IC50 ([2]; Leishmania major): > 100 µM

Structure (SMILES): COc1ccc(-[n+]2c(C)cc3cc(OC)cc(OC)c3c2C)cc1
IC50 [1]: > 100 µM | IC50 ([2]; Leishmania major): > 100 µM

Structure (SMILES): COc1cc(OC)c2c(C)[n+](-c3ccc(Cl)cc3)c(C)cc2c1
IC50 [1]: 3.05 µM | selectivity ratio [3]: < 1 | IC50 ([2]; Leishmania major): 18.9 µM

EC50 [23]: 0.075 µM
Structure (SMILES): C[C@@H]1[C@H](O)[C@@H](C)/C=C/C=C/C=C/C=C/C=C/C=C/C=C/[C@H](O[C@@H]2O[C@H](C)[C@@H](O)[C@H](N)[C@@H]2O)C[C@@H]2O[C@](O)(C[C@@H](O)C[C@@H](O)[C@H](O)CC[C@@H](O)C[C@@H](O)CC(=O)O[C@H]1C)C[C@H](O)[C@H]2C(=O)O [AMPHOTERICIN B]
IC50 [1]: > 70 µM | selectivity ratio [3]: > 14 | IC50 ([2]; Leishmania major): 5.07 µM | IC50 [15]: > 70 µM | Ratio IC50/EC50 [25]: >1000

Structure (SMILES): COc1cc(OC)c2c(C)[n+](-c3cccc4c3C(=O)c3ccccc3C4=O)c(C)cc2c1
IC50 [1]: > 100 µM | IC50 ([2]; Leishmania major): > 100 µM

Structure (SMILES): COc1cc(OC)c2c(C)[n+](-c3cccc(C)c3C)c(C)cc2c1
IC50 [1]: 10.5 µM | selectivity ratio [3]: < 1 | IC50 ([2]; Leishmania major): 11.6 µM

Structure (SMILES): COc1cc(OC)c2c(C)[n+](-c3ccc4ccccc4c3)c(C)cc2c1
IC50 [1]: 8.13 µM | selectivity ratio [3]: 2.41 | IC50 ([2]; Leishmania major): 3.37 µM

Structure (SMILES): COc1cc(OC)c2c(C)[n+](-c3ccc(C)cc3C)c(C)cc2c1
IC50 [1]: 4.07 µM | selectivity ratio [3]: 1.24 | IC50 ([2]; Leishmania major): 3.28 µM

Structure (SMILES): COc1cc(OC)c2c(C)[n+](-c3ccc(O)cc3)c(C)cc2c1
IC50 [1]: > 100 µM | IC50 ([2]; Leishmania major): 15.9 µM

fraction unbound [8]: 0.475
Structure (SMILES): CCc1ccc(-[n+]2c(C)cc3cc(OC)cc(OC)c3c2C)cc1
IC50 [1]: 4.5 µM | selectivity ratio [3]: < 1 | IC50 ([2]; Leishmania major): 5.53 µM
